US9944602B2, “Piperidinone herbicides” (E. I. DU PONT DE NEMOURS AND COMPANY, priority 2014, dated 2018)

What was measured:
Assay type in all cases: in vivo
[1] = tested on: wheat (Triticum aestivum); assay: Test A preemergence wheat; details: 0 to 100 scale, 0 no effect, 100 complete control
From the text: Seeds of plant species selected from barnyardgrass (Echinochloa crus-galli), kochia (Kochia scoparia), ragweed (common ragweed, Ambrosia elatior), ryegrass, Italian (Italian ryegrass, Lolium multiflorum), crabgrass, large (large crabgrass, Digitaria sanguinalis), foxtail, giant (giant foxtail, Setaria faberii), morningglory (Ipomoea spp.), pigweed (Amaranthus retroflexus), velvetleaf (Abutilon theophrasti), wheat (Triticum aestivum), and corn (Zea mays) were planted into a blend of loam soil and sand and treated preemergence with a directed soil spray using test chemicals formulated in a non-phytotoxic solvent mixture which included a surfactant.
At the same time, plants selected from these crop and weed species and also blackgrass (Alopecurus myosuroides), and galium (catchweed bedstraw, Galium aparine) were planted in pots containing the same blend of loam soil and sand and treated with postemergence applications of test chemicals formulated in the same manner. Plants ranged in height from 2 to 10 cm and were in the one- to two-leaf stage for the postemergence treatment. Treated plants and untreated controls were maintained in a greenhouse for approximately 10 d, after which time all treated plants were compared to untreated controls and visually evaluated for injury. Plant response ratings, summarized in Table A, are based on a 0 to 100 scale where 0 is no effect and 100 is complete control. A dash (-) response means no test result.

[2] = tested on: ryegrass, Italian (Italian ryegrass, Lolium multiflorum); assay: Test C preemergence ryegrass, Italian; details: Table C, scale 0 to 100
From the text: (§1) Seeds of plant species selected from blackgrass (Alopecurus myosuroides), ryegrass, Italian (Italian ryegrass, Lolium multiflorum), wheat (winter wheat, Triticum aestivum), galium (catchweed bedstraw, Galium aparine), corn (Zea mays), crabgrass, large (large crabgrass, Digitaria sanguinalis), foxtail, giant (giant foxtail, Setaria faberii), johnsongrass (Sorghum halepense), lambsquarters (Chenopodium album), morningglory (Ipomoea coccinea), yellow (yellow nutsedge, Cyperus esculentus), pigweed (Amaranthus retroflexus), ragweed (common ragweed, Ambrosia elatior), soybean (Glycine max), barnyardgrass (Echinochloa crus-galli), oilseed rape (Brassica napus), waterhemp (common waterhemp, Amaranthus rudis), and velvetleaf (Abutilon theophrasti) were planted into a blend of loam soil and sand and treated preemergence with test chemicals formulated in a non-phytotoxic solvent mixture which included a surfactant. At the same time, plants selected from these crop and weed species and also chickweed (common chickweed, Stellaria media), kochia (Kochia scoparia), and oat, wild (wild oat, Avena fatua) were planted in pots containing Sunshine Redi-Earth® planting medium comprising spaghnum peat moss, vermiculite, starter nutrients and dolomitic limestone and treated with postemergence applications of test chemicals formulated in the same manner. Plants ranged in height from 2 to 18 cm (1- to 4-leaf stage) for postemergence treatments. Treated plants and controls were maintained in a greenhouse for 13 to 15 days, after which time all species were compared to controls and visually evaluated. Plant response ratings, summarized in Table C, are based on a scale of 0 to 100 where 0 is no effect and 100 is complete control. A dash (-) response means no test result.

[3] = tested on: velvetleaf (Abutilon theophrasti); assay: Test C postemergence velvetleaf; details: Table C, scale 0 to 100
From the text: as §1

[4] = tested on: morningglory (Ipomoea coccinea); assay: Test C preemergence morningglory; details: Table C, scale 0 to 100
From the text: as §1

[5] = tested on: wheat (winter wheat, Triticum aestivum); assay: Test C preemergence wheat; details: Table C, scale 0 to 100
From the text: as §1

[6] = tested on: wheat (winter wheat, Triticum aestivum); assay: Test C postemergence wheat; details: Table C, scale 0 to 100
From the text: as §1

[7] = tested on: galium (catchweed bedstraw, Galium aparine); assay: Test C postemergence galium; details: Table C, scale 0 to 100
From the text: as §1

[8] = tested on: yellow (yellow nutsedge, Cyperus esculentus); assay: Test C postemergence yellow nutsedge; details: Table C, scale 0 to 100
From the text: as §1

[9] = tested on: crabgrass, large (large crabgrass, Digitaria sanguinalis); assay: Test C postemergence crabgrass, large; details: Table C, scale 0 to 100
From the text: as §1

| SMILES | Wheat plant response rating ([1]; 125 g ai/ha) | Wheat plant response rating ([1]; 500 g ai/ha) | Plant response rating ([2]; 31 g ai/ha) | Plant response rating ([2]; 62 g ai/ha) | Plant response rating ([2]; 125 g ai/ha) | Plant response rating ([2]; 250 g ai/ha) | Plant response rating ([3]; 31 g ai/ha) | Plant response rating ([3]; 62 g ai/ha) | Plant response rating ([3]; 125 g ai/ha) | Plant response rating ([3]; 250 g ai/ha) | Plant response rating ([4]; 31 g ai/ha) | Plant response rating ([4]; 62 g ai/ha) | Plant response rating ([4]; 125 g ai/ha) | Plant response rating ([4]; 250 g ai/ha) | Plant response rating ([5]; 31 g ai/ha) | Plant response rating ([5]; 62 g ai/ha) | Plant response rating ([5]; 125 g ai/ha) | Plant response rating ([5]; 250 g ai/ha) | Plant response rating ([6]; 31 g ai/ha) | Plant response rating ([6]; 62 g ai/ha) | also measured |
| --- | --- | --- | --- | --- | --- | --- | --- | --- | --- | --- | --- | --- | --- | --- | --- | --- | --- | --- | --- | --- | --- |
| O=C1NCCC(c2cccc(C(F)(F)F)c2)C1C(=O)Nc1ccccc1C(F)(F)F (centres unmarked) [Compound 10, 2-oxo-N-[2-(trifluoromethyl)phenyl)-4-[3-(trifluoromethyl)phenyl]-3-piperidinecarboxamide] | 0 | 0 |  |  |  |  |  |  |  |  |  |  |  |  |  |  |  |  |  |  |  |
| O=C1NCCC(c2cccc(C(F)(F)F)c2)C1C(=O)Nc1cccc(F)c1F (centres unmarked) [Compound 9, N-(2,3-difluorophenyl)-2-oxo-4-[3-(trifluoromethyl)phenyl]-3-piperidinecarboxamide] | 20 | 50 | 30 | 50 | 30 | 80 | 0 | 0 | 0 | 0 | 0 | 20 | 5 | 45 | 0 | 30 | 55 | 70 | 0 | 0 | Plant response rating ([6]; 125 g ai/ha): 0; Plant response rating ([6]; 250 g ai/ha): 0; Plant response rating ([7]; 31 g ai/ha): 0; Plant response rating ([7]; 62 g ai/ha): 0; Plant response rating ([7]; 125 g ai/ha): 0; Plant response rating ([7]; 250 g ai/ha): 40; Plant response rating ([8]; 31 g ai/ha): 0; Plant response rating ([8]; 62 g ai/ha): 0; Plant response rating ([8]; 125 g ai/ha): 0; Plant response rating ([8]; 250 g ai/ha): 0; Plant response rating ([9]; 31 g ai/ha): 0; Plant response rating ([9]; 62 g ai/ha): 35; Plant response rating ([9]; 125 g ai/ha): 75; Plant response rating ([9]; 250 g ai/ha): 75 |
| O=C1NCCC(c2cccc(C(F)(F)F)c2)C1C(=O)Nc1ccccc1Cl (racemic) [Compound 17] |  |  |  |  |  |  | 0 | 0 | 0 | 0 |  |  |  |  |  |  |  |  | 0 | 0 | Plant response rating ([6]; 125 g ai/ha): 0; Plant response rating ([6]; 250 g ai/ha): 0; Plant response rating ([7]; 31 g ai/ha): 0; Plant response rating ([7]; 62 g ai/ha): 0; Plant response rating ([7]; 125 g ai/ha): 0; Plant response rating ([7]; 250 g ai/ha): 0; Plant response rating ([8]; 31 g ai/ha): 0; Plant response rating ([8]; 62 g ai/ha): 0; Plant response rating ([8]; 125 g ai/ha): 0; Plant response rating ([8]; 250 g ai/ha): 0; Plant response rating ([9]; 31 g ai/ha): 5; Plant response rating ([9]; 62 g ai/ha): 20; Plant response rating ([9]; 125 g ai/ha): 20; Plant response rating ([9]; 250 g ai/ha): 55 |
| O=C1NCCC(c2cccc(C(F)(F)F)c2)C1C(=O)Nc1ccc(F)c(F)c1F (racemic) [Compound 28] |  |  | 0 | 0 | 0 | 35 |  |  |  |  | 5 | 5 | 5 | 30 | 0 | 0 | 0 | 10 |  |  |  |
